Assay results reported in paper PMC9928118, “Funneling modulatory peptide design with generative models: Discovery and characterization of disruptors of calcineurin protein-protein interactions” (PLOS Computational Biology, 2023).

Test system: GST-tagged Cn
Assay: PEPperPRINT peptide microarray binding assay with GST-tagged Cn
How it was run: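 Qualitative binding: peptides printed on a PEPperPRINT microarray were incubated overnight at 4 °C with 1 mg/ml GST-tagged Cn, then detected with Alexa-Fluor 647 anti-GST antibody. Log fluorescence was baseline-corrected, averaged over duplicate spots, Z-normalized and averaged across five repeats.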

[1] = max over the spots listed under Location on chip
[2] = mean over the spots listed under Location on chip
[3] = GST-tagged Cn, max over the chip spots listed under Location on chip
[4] = GST-tagged Cn, mean over the chip spots listed under Location on chip
[5] = GST-tagged Cn, max over the chip locations
[6] = GST-tagged Cn, mean over the chip locations
[7] = GST-tagged Cn, max over the spots on the chip (two locations)
[8] = GST-tagged Cn, mean over the spots on the chip (two locations)
[9] = max over the chip locations listed for the peptide (two spots)
[10] = mean over the chip locations listed for the peptide (two spots)
[11] = GST-tagged Cn, max over the spots named in Location on chip
[12] = GST-tagged Cn, mean over the spots named in Location on chip

PSLYENALGIESFTLS [SeqRBMlowT_6913]
Chip Fluorescence (max) [1]: 2.963 | Chip Fluorescence (mean) [2]: 0.4149

QASKNSNMQRSFHVNA [Seqshuffled_9426]
Chip Fluorescence (max) [3]: 0.8318 | Chip Fluorescence (mean) [4]: -0.05808

RVLECPSIRITSISPT [SeqNFATC4_Homo_sapiens]
Chip Fluorescence (max) [5]: 0.1768 | Chip Fluorescence (mean) [6]: -0.8782

SVWENATVRFNFFPDN [Seqshuffled_9917]
Chip Fluorescence (max) [1]: 3.124 | Chip Fluorescence (mean) [2]: 1.438

KKMSPPCINIDPAPEN [SeqRBMlowT_2410]
Chip Fluorescence (max) [7]: 1.08 | Chip Fluorescence (mean) [8]: -0.8311

VALVIRSTDKDDVGNY [SeqCEACAM5_Bactrocera_latifrons]
Chip Fluorescence (max) [1]: 3.268 | Chip Fluorescence (mean) [2]: 1.368

GTSGGFPQTDRSHKKQ [SeqRBM_413]
Chip Fluorescence (max) [9]: 3.637 | Chip Fluorescence (mean) [10]: -0.2581

KAYMCPSMQFIDGGRR [SeqRBMlowT_9264]
Chip Fluorescence (max) [7]: 1.2267 | Chip Fluorescence (mean) [8]: -0.003433

HSKLIPKLSVQSPVHH [SeqRBMlowT_1714]
Chip Fluorescence (max) [11]: 1.671 | Chip Fluorescence (mean) [12]: -0.5381

SKMAIAIYQMASCLLH [Seqshuffled_9384]
Chip Fluorescence (max) [11]: 1.655 | Chip Fluorescence (mean) [12]: 0.8527

MTPAAPIVRLHIPSSV [SeqRBM_8521]
Chip Fluorescence (max) [3]: 0.4752 | Chip Fluorescence (mean) [4]: -0.03556

KKMSPPCISIDPAPNN [SeqRBMlowT_7656]
Chip Fluorescence (max) [5]: 0.1833 | Chip Fluorescence (mean) [6]: -1.098

TFWSNPQFKIKLEEPD [SeqRBMlowT_2229]
Chip Fluorescence (max) [7]: 1.024 | Chip Fluorescence (mean) [8]: -0.06201

PDESTPEITITPAELP [SeqRBMlowT_5714]
Chip Fluorescence (max) [11]: 1.719 | Chip Fluorescence (mean) [12]: -0.09544

PSSCTPHLYARVHKGQ [SeqRBM_1451]
Chip Fluorescence (max) [5]: 0.2872 | Chip Fluorescence (mean) [6]: -1.296

DSLYQEVLGIGSFSLA [SeqCRZ1_Hypocrea_virens]
Chip Fluorescence (max) [1]: 2.584 | Chip Fluorescence (mean) [2]: -0.1117

RNPERPKLHLQGHLVA [SeqRBM_9016]
Chip Fluorescence (max) [7]: 1.316 | Chip Fluorescence (mean) [8]: -0.7354

TFWSNPQFTITLAEPD [SeqRBMlowT_8092]
Chip Fluorescence (max) [3]: 0.3751 | Chip Fluorescence (mean) [4]: -0.8998

PGLYDNALGIEQFTLS [SeqRBMlowT_2874]
Chip Fluorescence (max) [9]: 13.8972 | Chip Fluorescence (mean) [10]: 1.628

STSSLPTFSFSSPVPT [SeqRBMlowT_3904]
Chip Fluorescence (max) [3]: 0.9816 | Chip Fluorescence (mean) [4]: -1.275

HISSSPDITATPTQHR [SeqRIPOR2_Calypte_anna]
Chip Fluorescence (max) [5]: -0.228 | Chip Fluorescence (mean) [6]: -0.7974

REPGVPPLELKGHLSL [SeqRBM_7171]
Chip Fluorescence (max) [11]: 1.816 | Chip Fluorescence (mean) [12]: 0.8874

KFPGAEFLPQTLTPPP [Seqshuffled_9792]
Chip Fluorescence (max) [3]: 0.7156 | Chip Fluorescence (mean) [4]: -0.9321

SSEYQESLCIENFSAN [SeqRBM_3304]
Chip Fluorescence (max) [11]: 1.766 | Chip Fluorescence (mean) [12]: 0.6423

KPFECPSIQITSISPN [SeqNFATC3_Homo_sapiens]
Chip Fluorescence (max) [3]: 0.8784 | Chip Fluorescence (mean) [4]: -0.3746

STSSLPTFSFSSLAPS [SeqRBMlowT_2354]
Chip Fluorescence (max) [7]: 1.162 | Chip Fluorescence (mean) [8]: -0.4848

RNPGTALLELRGHSAS [SeqRBMlowT_6200]
Chip Fluorescence (max) [1]: 2.68 | Chip Fluorescence (mean) [2]: 1.087

GAPGTPSRWGTPLAPS [SeqRBM_851]
Chip Fluorescence (max) [11]: 1.622 | Chip Fluorescence (mean) [12]: 0.7552

TFWTNPQFRLKLIDPD [SeqRBMlowT_9197]
Chip Fluorescence (max) [11]: 1.422 | Chip Fluorescence (mean) [12]: -0.7542

RMMEPQNRGFKGCTES [Seqshuffled_509]
Chip Fluorescence (max) [9]: 6.671 | Chip Fluorescence (mean) [10]: 1.748

VETIRPGVVTEPMEAG [SeqRBM_4600]
Chip Fluorescence (max) [1]: 3.238 | Chip Fluorescence (mean) [2]: 1.278

SVDKHPRVYVATSRED [SeqRBM_4749]
Chip Fluorescence (max) [9]: 4.793 | Chip Fluorescence (mean) [10]: 0.8161

TFWMNPQYKIKLEEPD [SeqRBMlowT_4687]
Chip Fluorescence (max) [11]: 1.8162 | Chip Fluorescence (mean) [12]: 0.005772

HVSSSPDVTLTPTQHR [SeqRBMlowT_4550]
Chip Fluorescence (max) [3]: 0.8955 | Chip Fluorescence (mean) [4]: -0.3348

SDEAGVRIVITVTEAP [SeqRBMlowT_9535]
Chip Fluorescence (max) [7]: 1.153 | Chip Fluorescence (mean) [8]: -0.5729

KHATSPRINITQTSTL [SeqRBM_2048]
Chip Fluorescence (max) [3]: 0.7747 | Chip Fluorescence (mean) [4]: -0.7747

KKMSPPCINIDPAPTN [SeqRBMlowT_1811]
Chip Fluorescence (max) [7]: 0.9886 | Chip Fluorescence (mean) [8]: -0.8988

SSQGSSRPARSPERTV [SeqRBM_2387]
Chip Fluorescence (max) [3]: 0.4699 | Chip Fluorescence (mean) [4]: -0.1808

RSYVNPAYSFTFDSKA [SeqSFB3_Lachancea_meyersii]
Chip Fluorescence (max) [11]: 1.532 | Chip Fluorescence (mean) [12]: -0.902

HVSSSPDIAITPTQHR [SeqRBMlowT_750]
Chip Fluorescence (max) [5]: 0.08257 | Chip Fluorescence (mean) [6]: -1.44

RTNLNPFFFFTSDSKN [SeqRBM_2819]
Chip Fluorescence (max) [5]: -0.6014 | Chip Fluorescence (mean) [6]: -1.251

RNPGTFPLELEGHKKQ [SeqRBMlowT_8768]
Chip Fluorescence (max) [1]: 3.224 | Chip Fluorescence (mean) [2]: 1.049

QSRSCSHPNRSPERVT [SeqRBM_5791]
Chip Fluorescence (max) [5]: -0.7515 | Chip Fluorescence (mean) [6]: -1.165

KAYINPFMQFIDGGRR [SeqRBMlowT_549]
Chip Fluorescence (max) [1]: 3.298 | Chip Fluorescence (mean) [2]: 1.4015

PQLYQNVLGIGSFSLS [SeqRBMlowT_4804]
Chip Fluorescence (max) [3]: 0.4517 | Chip Fluorescence (mean) [4]: -0.7977

MLSIRPSARLKIPQHR [SeqRBM_1889]
Chip Fluorescence (max) [11]: 1.553 | Chip Fluorescence (mean) [12]: -0.6579

TFWTNPQFRIKLEDVD [SeqRBMlowT_2]
Chip Fluorescence (max) [3]: 0.5307 | Chip Fluorescence (mean) [4]: -0.7635

AGCTVNNYSTNFAEND [Seqshuffled_9821]
Chip Fluorescence (max) [1]: 2.618 | Chip Fluorescence (mean) [2]: 0.6288

ATDTTPSVVVHVCESD [SeqRCN1_Macaca_mulatta]
Chip Fluorescence (max) [7]: 1.045 | Chip Fluorescence (mean) [8]: 0.2093

EGKMDPELYISTVEAQ [SeqRBM_3392]
Chip Fluorescence (max) [9]: 3.895 | Chip Fluorescence (mean) [10]: 0.1296

KDMLIPRPSSQDSGAY [SeqRBM_5587]
Chip Fluorescence (max) [11]: 1.626 | Chip Fluorescence (mean) [12]: -0.4019

RQPGTALLTLRGHKKQ [SeqRBMlowT_5805]
Chip Fluorescence (max) [11]: 1.524 | Chip Fluorescence (mean) [12]: 0.2674

GGPGTPGRPGIHSAPS [SeqRBM_5424]
Chip Fluorescence (max) [11]: 1.6472 | Chip Fluorescence (mean) [12]: -0.88

TFWSNPQYKITLEEPD [SeqRBMlowT_9677]
Chip Fluorescence (max) [1]: 3.254 | Chip Fluorescence (mean) [2]: 0.9673

LKDQFPKVRLNIIDAP [SeqRBM_543]
Chip Fluorescence (max) [1]: 2.925 | Chip Fluorescence (mean) [2]: 0.6756

PGLYDNALGMESFTLS [SeqRBMlowT_2805]
Chip Fluorescence (max) [7]: 1.201 | Chip Fluorescence (mean) [8]: 0.8541

QSQSNPEITVTPPETE [SeqRIPOR2_Austrofundulus_limnaeus]
Chip Fluorescence (max) [9]: 10.3742 | Chip Fluorescence (mean) [10]: 0.3512

TFWTNPQYVVSLEEPD [SeqRBMlowT_5673]
Chip Fluorescence (max) [3]: 0.9389 | Chip Fluorescence (mean) [4]: 0.02031

STSGTFPQTESSHKKQ [SeqRBMlowT_5831]
Chip Fluorescence (max) [11]: 1.58 | Chip Fluorescence (mean) [12]: 0.09302

KSKLIPKLSIQSPVRH [SeqJHY_Macaca_mulatta]
Chip Fluorescence (max) [7]: 1.129 | Chip Fluorescence (mean) [8]: -1.294

TFWTNPQYRLNIIDPD [SeqRBMlowT_94]
Chip Fluorescence (max) [7]: 1.251 | Chip Fluorescence (mean) [8]: -0.6992

QYAYNSQMMGITTQLQ [Seqshuffled_9335]
Chip Fluorescence (max) [3]: 0.8878 | Chip Fluorescence (mean) [4]: -0.5817

KQMAPPAINIDFAPTN [SeqRBMlowT_1821]
Chip Fluorescence (max) [5]: -0.4908 | Chip Fluorescence (mean) [6]: -3.72
